Assay results from patent US20260034135A1, “USE OF N6-BENZYLAMINOPURINE AS AN APPETITE SUPPRESSANT” (THE GOVERNING COUNCIL OF THE UNIVERSITY OF TORONTO, priority 2022, published 2026).

What was measured:
[1] = BAP in a honey emulsion fed to CD-1 mice: body weight, food and water intake; assay type: in vivo
From the text: Male and female CD-1 mice were received at age 6-7 weeks and were acclimated on a chow diet for one week prior to experimentation. After acclimation to the facility, mice were switched to a 60% HFD. The male and female mice received HFD for 4 (male) and 5 or 16 (female) weeks prior to BAP exposure. The mice were then acclimated to the emulsion feeding protocol for 4 days prior to the start of BAP exposure using the method described in Kuster et al. (12). Two days prior to the start of the exposure period, a cohort of male mice underwent acute general anesthetic with isoflurane for baseline Bruker scanning to quantify peripheral fat mass. The mice were then weight-matched and randomly assigned to either the control or BAP group. During the exposure period, mice were restrained via scruffing (held at back of neck) and fed 200 μL of an emulsion containing 0.5% carboxymethyl cellulose and 50% honey with or without BAP at 2 hr prior to lights off at the facility daily.
[…] All mice were kept on the 60% HFD throughout the exposure period. […] On day 12, the one cohort of male mice underwent general anesthetic for the purpose of post-experiment Bruker scanning. The male mice were then fed their assigned emulsion 2 hr prior to sacrificing and tissue collection. […] Hypothalamic collected from the mice were then used to isolate RNA and quantify gene expression using quantitative reverse transcription polymerase chain reaction (qRT-PCR).

mHypoE-44 cell line = assay: Gene expression by qRT-PCR in mHypoE-44 hypothalamic cell line; assay type: cell-based, mouse; settings: for effect of PKA inhibition on BAP effect on Npy expression: n=2
Method: (§1) Hypothalamic neurons from embryonic and adult mice were previously immortalized to generate the clonal cell lines mHypoE-46, mHypoE-44, mHypoE-41, mHypoE-38, mHypoA-59, a FAC-sorted POMC/GFP mouse-derived cell line, mHypoA-POMC/GFP-2, and a mixed culture mHypoA-Bmal1-WT/F cell line (6, 13, 14). The mHypoE-46, mHypoE-44, and mHypoA-Bmal1-WT/F lines were cultured in DMEM containing 1000 mg/L glucose supplemented with 5% FBS and 1% pen/strep. The mHypoE-41, mHypoE-38, and mHypoA-59 cell lines were cultured in DMEM containing 4500 mg/L glucose supplemented with 2% FBS and 1% pen/strep. The mHypoA-POMC/GFP-2 line was cultured in DMEM containing 1000 mg/L glucose supplemented with 2% FBS and 1% pen/strep. All cells were maintained in 5% CO2 at 37° C. BAP was initially dissolved in DMSO solvent (vehicle control) to achieve 1000x the intended dose. The BAP solution was then diluted 1:1000 with the growth media used for the cell line. For co-treatment experiments, the vehicle control for ATP, UDP, and PKI was water, and for the H89 PKA inhibitor was DMSO. Neuropeptide gene expression levels were determined by qRT-PCR.
For cell culture experiments, total RNA was isolated using PureLink RNA isolation kit (Thermofisher Scientific, Burlington, ON, Canada) according to the manufacturer's instruction with on column DNase step (PureLink DNAse kit) or DNase I treatment to remove genomic DNA. For mouse experiments, total RNA was isolated using mirVana PARIS RNA and native protein isolation kit (Thermofisher Scientific). RNA quality and quantity were measured using Nanodrop 2000 and 500-1000 ng of complimentary DNA (cDNA) was synthesized with High Capacity cDNA Reverse Transcription kit (Applied biosystems, Thermofisher Scientific). Quantitative reverse transcription polymerase chain reaction (RT-qPCR) was performed with 12.5 ng of cDNA amplified with Platinum SYBR green qPCR SuperMix-UDG with ROX on an Applied Biosystems Prism 7900HT or PowerTrack Green Master Mix on an Applied Biosystems QuantStudio 5 and gene specific primers as per manufacturer's instructions (Table 1). Data was analyzed using […] and normalized to reference gene, either 60S ribosomal protein L7 (Rpl7) or Histone 3a (His).

[2] = tested on: mHypoA-POMC/GFP-2 cell line; assay: Gene expression by qRT-PCR in mHypoA-POMC/GFP-2 hypothalamic cell line; assay type: cell-based, mouse; settings: 100 μM BAP, 16 hr
Method: as §1, with “All cells were maintained in 5% CO2 at 37° C. BAP was initially dissolved in DMSO solvent (vehicle control) to achieve 1000x the intended dose. The BAP solution was then diluted 1:1000 with the growth media used for the cell line. For co-treatment experiments, the vehicle control for ATP, UDP, and PKI was water, and for the H89 PKA inhibitor was DMSO.” left out
For cell culture experiments, total RNA was isolated using PureLink RNA isolation kit (Thermofisher Scientific, Burlington, ON, Canada) according to the manufacturer's instruction with on column DNase step (PureLink DNAse kit) or DNase I treatment to remove genomic DNA. […] RNA quality and quantity were measured using Nanodrop 2000 and 500-1000 ng of complimentary DNA (cDNA) was synthesized with High Capacity cDNA Reverse Transcription kit (Applied biosystems, Thermofisher Scientific). […] Data was analyzed using […] and normalized to reference gene, either 60S ribosomal protein L7 (Rpl7) or Histone 3a (His).

P2 receptors = settings: rats, via P2 receptors, modifying intracellular calcium levels and cGMP; cited from earlier work
[3] = male CD-1, 60% HFD, 300 mg/kg/day BAP emulsion, 11 days, cohort CCBR
[4] = male CD-1, 60% HFD, 300 mg/kg/day BAP emulsion, 14 days, cohort BSF
[5] = male CD-1, 60% HFD, 300 mg/kg/day BAP emulsion, 28 days, cohort BSF

## c1ccc(CNc2ncnc3nc[nH]c23)cc1 [BAP, N6-benzylaminopurine]
[1]; female CD-1, 16 weeks 60% HFD then 300 mg/kg/day BAP emulsion 36 days, cohort BSF
  body weight gain on HFD: did not gain weight
[1]; female CD-1, 60% HFD, 300 mg/kg/day BAP emulsion 36 days, cohort BSF
  food intake vs control: did not eat significantly less HFD
[1]; male CD-1, 60% HFD, 75 mg/kg/day BAP emulsion, 14 days
  body weight change vs control: no change
[1]; male CD-1, 60% HFD, 150 mg/kg/day BAP emulsion, 14 days, cohort BSF
  body weight gain on HFD: did not gain weight
[1]; [3]
  body weight loss: 5%
  reduction in HFD food intake vs control group over the exposure period: 22%
[1]; [4]
  body weight loss: 1.3%
  daily average food intake vs control: did not eat significantly less HFD
[1]; male CD-1, 60% HFD, 300 mg/kg/day BAP emulsion, 14 days, dose study, cohort BSF
  body weight loss: 1.1%
[1]; male CD-1, 60% HFD, 300 mg/kg/day BAP emulsion, 14 days, dose study, significant by unpaired t-test at 8 days onward
  food intake: trend towards a decrease in food intake that did not reach significance
[1]; [5]
  body weight loss: 5%
  reduction in daily average food intake vs control: 13%
[1]; male CD-1, 60% HFD, 75, 150, 300 mg/kg BAP emulsion, 14 days
  cumulative daily food intake: do not have significant changes in food intake
mHypoE-44 cell line; 100 μM BAP + 1 μM H89, 16 hr
  effect of PKA inhibition on BAP effect on Npy expression: unable to block the effects of BAP on Npy expression
mHypoE-44 cell line; 100 μM BAP + 10 μM PKI, 16 hr
  effect of PKA inhibition on BAP effect on Npy expression: unable to block the effects of BAP on Npy expression
mHypoE-44 cell line; 100 μM BAP + 100 μM ATP, 16 hr
  Npy mRNA under co-treatment with ATP: still able to overcome this induction
mHypoE-44 cell line; 100 μM BAP + 100 μM UDP, 16 hr
  Npy mRNA under co-treatment with UDP (effect of UDP on BAP repression): block the repression of Npy levels by BAP
mHypoE-44 cell line; 100 μM BAP + 100 μM UTP, 16 hr, n=2 preliminary
  Npy mRNA under co-treatment with UTP (effect of UTP on BAP repression): appears to be able to block the repression of Npy levels by BAP
mHypoE-44 cell line; 100 μM BAP, 16 hr
  Agrp mRNA expression: increased
  Npy mRNA expression: supressed
mHypoE-44 cell line; 100 μM BAP, at 8 and 16 hr (tested 2, 4, 8, 16, 24 hr)
  Npy mRNA expression, time course: significantly downregulate
mHypoE-44 cell line; dose curve, 16 hr
  BAP dose with strongest Npy decrease: 500 µM
mHypoE-44 cell line; increasing concentrations of BAP, 16 hr
  Npy expression, dose curve: decreases Npy in a dose dependent manner
[2]
  Pomc expression: significantly induced
P2 receptors
  strength of atrial muscle contractions: increase the strength of atrial muscle contractions
